Marks after values point to notes of the source that are not given here.
Experiment: Determination of bio-accumulation: urinary clearance pharmacokinetic study in rats
Type: in vivo, male Sprague Dawley rats
Conditions: oral gavage; for T½: elimination via urine, exponential least squares curve fitting of concentration in urine; for Compound-related Effects: clinical observation and gross necropsy 96 hours post-dose
[1] = 73 micro Moles per kg body weight, recovered in urine up to 96 h
[2] = 73 micro Moles per kg body weight
[3] = 73 micro Moles per kg, based on elimination of the major metabolite C3F7—O—CHFCOO−, no parent compound in urine

SMILES	% Recovery (96 h) [1]	T½ [2]	Compound-related Effects [2]	% Recovery (96 h) [3]	T½ (h) [3]
N.O=C(O)C(F)(F)OC(F)(F)C(F)(F)C(F)(F)OC(F)(F)F [Compound 1, CF3—O—(CF2)3—O—CF2—COONH4]	73%	–	–	–	–
N.O=C(O)C(F)(F)OC(F)(F)OC(F)(F)F [Compound 2, CF3—OCF2—O—CF2—COONH4]	96%	12 h	–	–	–
N.O=C(O)C(F)(F)OC(F)(F)OC(F)(F)OC(F)(F)F [Compound 3, CF3—OCF2—OCF2—OCF2—COONH4]	100%	12 h	–	–	–
N.O=C(O)C(F)(F)OC(F)(F)C(F)(F)C(F)(F)OC(F)(F)F [Compound 4, CF3—(OCF2)3—OCF2—COONH4]	50%	–	–	–	–
N.O=C(O)C(F)(F)OC(F)(F)C(F)(F)C(F)(F)F [Compound 5, C3F7—O—CF2—COONH4]	97%	11 h	–	–	–
N.O=C(O)C(F)(F)C(F)(F)OC(F)(F)F [Compound 6, CF3—O—CF2—CF2—COONH4]	100%	11 h	–	–	–
N.O=C(O)C(F)(F)C(F)(F)OC(F)(F)C(F)(F)F [Compound 7, C2F5—O—CF2—CF2—COONH4]	100%	10 h	–	–	–
N.O=C(O)C(F)(F)C(F)(F)OC(F)(F)C(F)(F)C(F)(F)F [Compound 8, C3F7—O—CF2—CF2—COONH4]	82%	12 h	–	–	–
N.O=C(O)C(F)(F)C(F)(F)OC(F)(F)C(F)(F)C(F)(F)C(F)(F)F [Compound 9, C4F9—O—CF2—CF2—COONH4]	42%	31 h	Hepatomegaly	–	–
N.O=C(O)C(F)(F)OC(F)(F)C(F)(F)OC(F)(F)C(F)(F)F [Compound 10, C2F5—O—CF2—CF2—O—CF2—COONH4]	99%	10 h	–	–	–
N.O=C(O)C(F)(F)C(F)OC(F)(F)C(F)(F)C(F)(F)OC(F)(F)F (centres unmarked) [Compound 11, CF3—O—CF2—CF2—CF2—O—CHF—CF2—COONH4]	84%	12 h	–	–	–
N.O=C(O)C(F)OC(F)(F)C(F)(F)C(F)(F)OC(F)(F)F (centres unmarked) [Compound 12, CF3—O—CF2—CF2—CF2—O—CHF—COONH4]	95%	11 h	–	–	–
N.O=C(O)C(F)(F)C(F)OC(F)(F)C(F)(F)C(F)(F)F (centres unmarked) [Compound 13, C3F7—O—CFH—CF2COONH4]	94%	11 h	–	–	–
N.O=C(O)C(F)(F)C(F)(F)C(F)(F)C(F)(F)C(F)(F)OC(F)C(F)(F)F (centres unmarked) [Compound 14, CF3—CFH—O—(CF2)5—COONH4]	32%	24 h	Hepatomegaly	–	–
N.O=C(O)C(F)(F)C(F)(F)C(F)(F)OC(F)C(F)(F)F (centres unmarked) [Compound 15, CF3—CFH—O—(CF2)3—COONH4]	95%	8 h	–	–	–
N.O=C(O)COC(F)(F)C(F)OC(F)(F)C(F)(F)C(F)(F)F (centres unmarked) [Compound 16, C3F7—O—CFH—CF2—O—CH2—COONH4]	–	–	–	65* %	13* h
N.O=C(O)C(F)(F)C(F)(F)C(F)(F)C(F)(F)C(F)(F)C(F)(F)C(F)(F)F [Compound C-1, C7F15COONH4, reference compound]	6%	~550 h	Hepatomegaly	–	–
N.O=C(O)C(F)(F)OC(F)(F)C(F)(OC(F)(F)C(F)(F)C(F)(F)F)C(F)(F)F (centres unmarked) [Compound C-3, C3F7—O—CF(CF3)—CF2—O—CF2—COONH4, reference compound]	5%	95 h	Hepatomegaly	–	–

— patent publication US7671112B2, “Method of making fluoropolymer dispersion” (priority 2005, dated 2010)
